Data taken from patent US9249147B2, “Tyrosine kinase inhibitors” (CHEMBRIDGE CORPORATION, priority 2008, dated 2016).
≈ marks a conversion by molar mass, not a printed value. Where “and” joins values, the source holds several entries; their conditions need not be identical. Equal entries are not always repeated. Where two headings read alike, the source gives them in different places.

Legend:
CYP1A2 = molecular target: T1, CYP1A2 (Homo sapiens, UniProt P05177); experiment: CYP1A2 Inhibition (recombinant, CEC substrate); format: in vitro ADME; conditions: for CYP1A2 % Inhibition of Control Values, 1st/2nd/3rd: listed as CRL241, mean
T1 construct: purchased Cerep (contract assay, ADMET Study 13170)
T1 sequence (P05177 1-516): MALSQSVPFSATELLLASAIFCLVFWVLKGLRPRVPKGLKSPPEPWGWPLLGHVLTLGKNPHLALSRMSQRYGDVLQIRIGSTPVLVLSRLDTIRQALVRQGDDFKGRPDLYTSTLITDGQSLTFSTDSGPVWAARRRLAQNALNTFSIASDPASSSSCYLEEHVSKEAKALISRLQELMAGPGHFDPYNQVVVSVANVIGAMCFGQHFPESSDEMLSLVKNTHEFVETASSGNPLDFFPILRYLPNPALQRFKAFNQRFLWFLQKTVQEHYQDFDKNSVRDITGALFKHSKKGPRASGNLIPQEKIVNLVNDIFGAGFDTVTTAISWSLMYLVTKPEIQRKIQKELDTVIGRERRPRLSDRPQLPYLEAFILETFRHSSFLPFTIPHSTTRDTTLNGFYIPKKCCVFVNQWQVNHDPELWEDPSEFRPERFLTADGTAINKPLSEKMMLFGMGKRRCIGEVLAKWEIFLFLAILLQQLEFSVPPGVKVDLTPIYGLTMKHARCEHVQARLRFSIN

[1] = Maximum Tolerated Dose toxicity study in mice; conditions: both, CD-1, mouse, in vivo, 14 days
Protocol: The toxicity study in mice (Maximum Tolerated Dose) was done with CD-1 strain of mice in groups of 50% male-50% female animals (10 animals per group) at the dosing levels of 2.5, 5, 10, and 20 mg/kg (intarperitoneal) and 5 and 10 mg/kg (peroral). Animals were dosed for 14 days, bid (the actual daily doses were twice those shown) and observed without dosing for additional 14 days. […].

[2] = Acute IV toxicity in mice; format: in vivo; conditions: 1 mg/kg intravenously, 24 hour observation
[3] = Aqueous Solubility (PBS, pH 7.4); format: physicochemical; conditions: for solubility: pH 7.4, PBS
[4] = Plasma Protein Binding (Human), equilibrium dialysis; format: in vitro ADME; conditions: 1.0E−05 M

## Cc1ccc(F)cc1C[C@H](C)Nc1cc[nH]c(=O)c1-c1nc2cc3c(cc2[nH]1)C(=O)N(CCN1CCCC1)C3 [compound (II)]
CYP1A2; 1 μM and 5 μM
  CYP1A2 inhibition: No inhibition was detected
CYP1A2; 1.0E−06 M, Table 5B individual results
  CYP1A2 % Inhibition of Control Values, 1st/2nd/3rd: 106.6%
CYP1A2; 5.0E−06 M, Table 5B individual results
  CYP1A2 % Inhibition of Control Values, 1st/2nd/3rd: 90.3%
CYP1A2; recombinant CYP1A2, probe CEC, 1.0E−06 M, Table 5B individual results, read-out: CYP1A2 % Inhibition of Control Values, 1st/2nd/3rd
  activity at 1 µM: 110%
CYP1A2; recombinant CYP1A2, probe CEC, 5.0E−06 M, Table 5B individual results, read-out: CYP1A2 % Inhibition of Control Values, 1st/2nd/3rd
  activity at 5 µM: 92.1%
CYP1A2; recombinant CYP1A2, probe CEC, 1.0E−06 M, read-out: CYP1A2 % Inhibition of Control Values
  inhibition at 1 µM: -7%
CYP1A2; recombinant CYP1A2, probe CEC, 5.0E−06 M, read-out: CYP1A2 % Inhibition of Control Values
  inhibition at 5 µM: 10%
[1]
  Adverse effects at 5 and 10 mg/kg oral: No adverse effects were observed
  Tolerability at 2.5 or 5 mg/kg IP: safe
  Tolerability at 10 and 20 mg/kg IP: exceeded MTD
[2]
  Acute IV toxicity: no signs of toxicity were observed
[3]; pH 7.4, 2.0E−04 M, individual data, listed as CRL241
  Solubility 1st/2nd: 33.81 μm
[3]; pH 7.4, 2.0E−04 M, Tables 9C, 9D, read-out: Solubility Mean
  solubility: 33.9 µM (≈ 17.9 µg/mL)
[3]; pH 7.4, 2.0E−04 M, individual data, read-out: Solubility 1st/2nd
  solubility: 34 µM (≈ 18 µg/mL)
[3]; pH 7.4, test concentration 2.0E−04 M, 24 hours, RT
  solubility at 24 h: 34 µM (≈ 18 µg/mL)
[4]; equilibrium dialysis
  % Protein Bound, Mean: 94.7%
[4]; individual data, listed as CRL241
  % Protein Bound, 1st/2nd: 94.6% and 94.7%
